Values joined by “and” are separate entries in the source; they are usually repeats but may differ in a detail not shown here. Identical values can stand only once.
Tests used:
Streptococcus pyogenes = experiment: Bactericidal activity of NCT without and with heparin (CFU counts); format: cell-based
Experimental: FIG. 3 presents a plot of bactericidal activity of 1% NCT without and with 125 IE/mL heparin against Streptococcus pyogenes at pH 7.1 and 37° C. Mean values±standard error of the mean of three independent experiments. P>0.05 between NCT without and NCT with heparin.
NCT was dissolved in 0.1 M phosphate buffer containing either 125 IE/mL heparin or no heparin. The final NCT concentration was 1%. Various bacterial species were grown in tryptic soy broth overnight, were washed twice in saline and then suspended in the NCT and NCT/heparin solutions. The species were Staphylococcus aureus (ATCC 25923), Escherichia coli (ATCC 11229), Streptococcus pyogenes, Staphylococcus epidermidis, Pseudomonas aeruginosa, Proteus mirabilis, and methicillin-resistant Staphylococcus aureus. Controls were performed with the foregoing bacterial species suspended in 0.1 M phosphate buffer without additives and in 0.1 M phosphate buffer containing 125 IE/mL heparin. All of the solutions were incubated at 37° C. and pH 7.1. After 1, 3, 5, 8, and 10 minutes, aliquots of 100 μL were removed and diluted 10-fold or 100-fold in 0.6% sodium thiosulfate solution to inactivate the NCT. Aliquots (50 μL) of these dilutions were spread on tryptic soy agar plates. The plates were incubated at 37° C. and colony forming units of bacteria were counted after 24 and 48 hours. […]

Pseudomonas aeruginosa = experiment: as above; format: cell-based
[1] = test system: Candida albicans, CBS 5982; experiment: Fungicidal activity of NCT without and with heparin (CFU counts); format: cell-based; details: 1% NCT, 125 IE/mL heparin, pH 7.1, 37° C., 30-120 min
Experimental: FIG. 9 presents a plot of fungicidal activity of 1% NCT without and with 125 IE/mL heparin against Candida albicans (CBS 5982) at pH 7.1 and 37° C. Mean values±standard error of the mean of three independent experiments. P>0.05 between NCT without and NCT with heparin.
NCT was dissolved in 0.1 M phosphate buffer containing either 125 IE/mL heparin or no heparin. The final NCT concentration was 1%. Yeast (Candida albicans, CBS 5982) grown in tryptic soy broth overnight was washed twice in saline and then suspended in the NCT and NCT/heparin solutions. Controls were performed with the yeast suspended in 0.1 M phosphate buffer without additives and in 0.1 M phosphate buffer containing 125 IE/mL heparin. After incubation times of 30, 60, 90 and 120 minutes at 37° C. and pH 7.1, aliquots of 100 μL were removed and diluted tenfold or 100-fold in 0.6% sodium thiosulfate solution to inactivate the NCT. Aliquots (50 μL) of these dilutions were spread on tryptic soy agar plates. The plates were incubated at 37° C. and colony forming units of Candida albicans were counted after 24 and 48 hours. The assays were performed three times serially and the mean count was reported (FIG. 9). […] Statistical analysis was performed by Student's paired t test and one way analysis of variance (P>0.05 between NCT without and NCT with heparin). […]

citrate blood [2] = experiment: International normalized ratio (INR); format: biochemical, human; details: Example 7; for International normalized ratio (INR): individual subjects 1-11; for International normalized ratio (INR), mean value: mean of 11 subjects
Experimental: (§1) Whole blood was taken from 11 volunteers and enriched with trisodium citrate (0.3 mL of a 0.106 molar solution per 3 mL whole blood) (S-Monovette®, Sarstedt, Nümbrecht, Germany). Commercial coagulation tests (as described in Example 6) were performed with the following samples: […]

citrate blood [3] = experiment: Routine coagulation tests, overall anticoagulant effect; format: biochemical, human
Experimental: Whole blood was taken from volunteers and enriched with trisodium citrate (0.3 mL of a 0.106 molar solution per 3 mL whole blood) (S-Monovette®, Sarstedt, Nümbrecht, Germany). Routine coagulation tests were performed on the following samples:
The following commercial coagulation tests were performed according to the prescription of the manufacturer: prothrombin time (PT) was determined using Thromborel® S test (Dade Behring GmbH, Marburg, Germany); activated partial thromboplastin time (aPTT) was determined using Pathromtin* SL test (Dade Behring GmbH, Marburg, Germany); and thrombin time (TT) was determined using BC Thrombin Reagent test (Dade Behring GmbH, Marburg, Germany).
Whole blood was taken from a single volunteer and enriched with trisodium citrate (0.3 mL of a 0.106 molar solution per 3 mL whole blood) (S-Monovette®, Sarstedt, Nümbrecht, Germany). Portions of 1.8 mL citrate blood were mixed with 0.2 mL NCT in 0.9% saline. The following final (after dilution in blood) NCT concentrations were tested separately: 1% (55 mM); 0.5% (27.5 mM); 0.25% (13.75 mM); 0.1% (5.5 mM); 0.05% (2.75 mM); 0.025% (1.375 mM); and 0.01% (0.55 mM). A control without NCT was performed in parallel. The following commercial coagulation tests were performed according to the prescription of the manufacturer: prothrombin time (PT) was determined using Thromborel® S test (Dade Behring GmbH, Marburg, Germany), activated partial thromboplastin time (aPTT) was determined using Pathromtin* SL test (Dade Behring GmbH, Marburg, Germany); thrombin time (TT) was determined using BC Thrombin Reagent test (Dade Behring GmbH, Marburg, Germany); and fibrinogen was determined using Multifibren* U test (Dade Behring GmbH, Marburg, Germany).
as §1

Swiss mice = experiment: Intraperitoneal injection in Swiss mice; format: in vivo; details: 1% NCT i.p., a further study
rabbit eyes = rabbit eyes [Ref. 13]; cited from earlier work
human eyes = human eyes [Ref. 13]; cited from earlier work
chronic rhinosinusitis = details: pilot study in chronic rhinosinusitis [Ref. 16]; cited from earlier work
[4] = test system: purulent coated crural ulcers; details: purulent coated crural ulcers [Ref. 17]; cited from earlier work
[5] = test system: omniresistant Pseudomonas aeruginosa; details: NCT irrigations, three patients [Ref 18]; cited from earlier work
[6] = 0.1% NCT, virtually identical experiments
[7] = 1% NCT, 125 IE/mL heparin, pH 7.1, 37° C., 1-10 min

O=S(=O)(O)CCNCl [NCT, N-chlorotaurine]
influence of heparin on the killing of bacteria (Streptococcus pyogenes; [6]): no statistically significant influence of heparin on the killing of bacteria
killing activity of NCT with vs without heparin (Streptococcus pyogenes; [7]): no difference in the killing activity
influence of heparin on the killing of bacteria (Pseudomonas aeruginosa; [6]): no statistically significant influence of heparin on the killing of bacteria
killing activity of NCT with vs without heparin (Pseudomonas aeruginosa; [7]): no difference in the killing activity
killing activity of NCT without vs with heparin [1]: no statistically significant difference in the killing activity
International normalized ratio (INR) (citrate blood [2]; 0.01% NCT): 1.2 (5×) and 1.3 (3×) and 1.1 (3×)
International normalized ratio (INR), mean value (citrate blood [2]; 0.01% NCT): 1.2
International normalized ratio (INR) (citrate blood [2]; 0.025% NCT): 2.6 and 3.3 (2×) and 1.5 and 6 and 4.2 and 2.8 and 4.4 and 2 and 2.9 and 2.3
International normalized ratio (INR), mean value (citrate blood [2]; 0.025% NCT): 3.2
effect on the anticoagulant activity of heparin (citrate blood [3]; Example 5, 1% NCT final concentration): does not counteract the anticoagulant activity of heparin
anticoagulant activity of NCT alone (citrate blood [3]; Example 5, 1% NCT without heparin): has anticoagulant activity
anticoagulant effect (citrate blood [3]; NCT 0.55 mmol/L): significant anticoagulant effect
anticoagulant effect (citrate blood [3]; NCT 1.375 mmol/L): strong effect
tolerated intraperitoneal injection (Swiss mice): tolerated up to one mL 1% NCT
tolerability in topical and localized applications (rabbit eyes): relatively safe and well-tolerated
tolerability in topical and localized applications (human eyes): relatively safe and well-tolerated
tolerability (chronic rhinosinusitis): good tolerability
pain and toxicity versus chloramine T [4]: significantly less pain and was less toxic than chloramine T
eradication of bacteria from the urinary bladder [5]: possible to eradicate bacteria from the urinary bladder

From US20110091570A1, “Compositions and Devices for Antisepsis and Anticoagulation” (priority 2008, published 2011)
